Here are results for one compound from PMC5429603, “Discovery and characterization of verinurad, a potent and specific inhibitor of URAT1 for the treatment of hyperuricemia and gout” (Scientific Reports, 2017).

One assay addresses T1, rat URAT1 (Rattus norvegicus, UniProt Q3ZAV1).
T1 construct: host or cells: HEK-293T
T1 sequence (Q3ZAV1 1-553): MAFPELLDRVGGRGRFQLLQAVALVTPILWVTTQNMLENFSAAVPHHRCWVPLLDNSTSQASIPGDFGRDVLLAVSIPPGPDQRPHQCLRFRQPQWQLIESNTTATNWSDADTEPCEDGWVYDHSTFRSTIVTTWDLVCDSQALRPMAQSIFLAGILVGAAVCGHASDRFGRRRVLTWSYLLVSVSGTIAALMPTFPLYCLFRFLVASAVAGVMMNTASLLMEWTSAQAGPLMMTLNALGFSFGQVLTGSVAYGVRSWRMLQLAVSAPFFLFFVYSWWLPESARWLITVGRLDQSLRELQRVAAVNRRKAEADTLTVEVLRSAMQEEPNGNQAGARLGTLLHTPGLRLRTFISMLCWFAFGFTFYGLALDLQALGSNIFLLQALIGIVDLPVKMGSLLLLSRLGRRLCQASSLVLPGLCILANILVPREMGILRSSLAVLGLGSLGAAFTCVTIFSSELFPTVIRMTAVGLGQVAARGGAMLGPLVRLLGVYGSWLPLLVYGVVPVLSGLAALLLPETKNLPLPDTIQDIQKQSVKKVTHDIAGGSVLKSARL
The assay can be described thus: URAT1 activity assay, rat URAT1. Type of assay: cell-based. Particulars: rat URAT1 wild type; 14C-uric acid; read-out: IC50, inhibition of transport activity. As to the method: (§1) HEK-293T cells were maintained in DMEM/high glucose/L-glutamine/HEPES supplemented with 1 mM sodium pyruvate (Life Technologies) and 10% FBS (PAA Laboratories) at 37 °C in 5% CO2. To express URAT1, OAT4 or OAT1, plasmids were reverse transfected into HEK-293T cells. DNA (10 µg) was mixed with 30 µl of DreamFect Gold (Boca Scientific) in 2 ml OptiMem (Life Technologies). After 20 minutes, 18 ml of media containing 2 × 10^7 cells in suspension was added and mixed, and 200 µl per well were plated onto white clear-bottomed poly-D-lysine coated 96-well plates (BD Biosciences). The cells were assayed the following day.
(§2) URAT1 and OAT4 activity assays were performed in assay buffer consisting of 25 mM MES pH 5.5 (from a 1 M MES solution [Sigma] adjusted to pH 5.5 with sodium hydroxide), 125 mM sodium gluconate, 4.8 mM potassium gluconate, 1.2 mM monobasic potassium phosphate, 1.2 mM magnesium sulfate, 1.3 mM calcium gluconate and 5.6 mM glucose. URAT1 inhibitors were serially diluted into assay buffer and added to the cells for 5 minutes prior to addition of substrate. URAT1-expressing cells were incubated with 100 µM ^14C-uric acid for 10 minutes and OAT4-expressing cells were incubated with 20 µM carboxyfluorescein (Life Technologies, Inc.) for 5 minutes. […] Each treatment was measured in triplicate.

The target of another assay is T2, human URAT1 h-T21A (Homo sapiens, UniProt Q96S37, T21A).
T2 construct: expressed in transfected cells; host or cells: HEK-293T
T2 sequence (Q96S37 whole entry T21A): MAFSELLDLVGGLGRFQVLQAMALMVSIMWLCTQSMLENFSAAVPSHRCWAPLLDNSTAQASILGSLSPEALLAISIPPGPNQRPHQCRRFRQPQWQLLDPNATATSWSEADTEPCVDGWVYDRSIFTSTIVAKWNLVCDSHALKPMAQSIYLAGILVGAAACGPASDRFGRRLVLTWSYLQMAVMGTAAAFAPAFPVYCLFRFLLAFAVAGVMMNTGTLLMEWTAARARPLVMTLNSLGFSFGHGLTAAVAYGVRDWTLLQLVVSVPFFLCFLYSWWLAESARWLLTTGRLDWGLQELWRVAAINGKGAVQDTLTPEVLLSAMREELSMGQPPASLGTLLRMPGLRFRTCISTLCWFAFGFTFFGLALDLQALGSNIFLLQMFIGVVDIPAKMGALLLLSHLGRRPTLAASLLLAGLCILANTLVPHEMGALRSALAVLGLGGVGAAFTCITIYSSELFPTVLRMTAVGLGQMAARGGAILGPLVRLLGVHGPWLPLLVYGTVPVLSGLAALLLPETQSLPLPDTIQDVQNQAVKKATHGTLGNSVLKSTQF
Nature of the assay: URAT1 activity assay, h-T21A. Type of assay: cell-based. The following applies: TM1 point mutant, read-out: Verinurad affinity (IC50). The text has this:
(§3) Human URAT1 (GenBank BC053348.1, Homo sapiens SLC22A12), rat URAT1 (NCBI NM_001034943.1, Rattus norvegicus Slc22a12) and human OAT4 (NCBI NM_018484.2, Homo sapiens SLC22A11) genes were purchased from Origene Technologies, Inc. and subcloned into pCMV6/neo using NotI. Where indicated, controls transfections used pCMV6/neo. Mutants were produced by site-directed mutagenesis using the QuikChange Lightning Multi Site-Directed Mutagenesis Kit (Agilent Technologies). […] Mutagenic primer sequences are provided in ref. [15] and mutagenic primer sequences for previously unreported mutants shown in Supplementary Table 1. All constructs used in this study were untagged. Human OAT1 was purchased from Fisher Scientific (catalog # MHS1010–7508183 in pSPORT6, NCBI NM_153276.2, Homo sapiens SLC22A6).
(§4) HEK-293T cells were maintained in DMEM/high glucose/L-glutamine/HEPES supplemented with 1 mM sodium pyruvate (Life Technologies) and 10% FBS (PAA Laboratories) at 37 °C in 5% CO2. […]
(§5) URAT1 and OAT4 activity assays were performed in assay buffer consisting of 25 mM MES pH 5.5 (from a 1 M MES solution [Sigma] adjusted to pH 5.5 with sodium hydroxide), 125 mM sodium gluconate, 4.8 mM potassium gluconate, 1.2 mM monobasic potassium phosphate, 1.2 mM magnesium sulfate, 1.3 mM calcium gluconate and 5.6 mM glucose. […] Each treatment was measured in triplicate.

The target in the next assay is T3, human OAT4 (Homo sapiens, UniProt Q9NSA0).
T3 construct: host or cells: HEK-293T
T3 sequence (Q9NSA0 whole entry): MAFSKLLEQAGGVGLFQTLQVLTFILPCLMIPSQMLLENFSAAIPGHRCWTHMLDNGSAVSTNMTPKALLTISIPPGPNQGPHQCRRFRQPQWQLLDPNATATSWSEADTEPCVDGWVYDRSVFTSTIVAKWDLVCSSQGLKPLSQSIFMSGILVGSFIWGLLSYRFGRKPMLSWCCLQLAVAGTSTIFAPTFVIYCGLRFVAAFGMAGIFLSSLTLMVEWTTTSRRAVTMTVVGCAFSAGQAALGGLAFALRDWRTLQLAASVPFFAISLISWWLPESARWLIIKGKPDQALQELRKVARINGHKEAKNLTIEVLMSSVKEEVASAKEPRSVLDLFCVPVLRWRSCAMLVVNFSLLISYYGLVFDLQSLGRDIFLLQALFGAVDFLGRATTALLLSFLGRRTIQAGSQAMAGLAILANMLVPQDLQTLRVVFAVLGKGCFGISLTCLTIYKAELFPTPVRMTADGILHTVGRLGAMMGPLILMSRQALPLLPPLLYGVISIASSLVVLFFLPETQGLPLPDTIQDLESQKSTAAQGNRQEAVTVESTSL
Nature of the assay: OAT4 activity assay (carboxyfluorescein transport). Type of assay: cell-based. As to the method: as §1, §2

The target of another assay is T4, rat URAT1 r-M481I (Rattus norvegicus, UniProt Q3ZAV1, M481I).
T4 construct: expressed in transfected cells; host or cells: HEK-293T
T4 sequence (Q3ZAV1 whole entry M481I): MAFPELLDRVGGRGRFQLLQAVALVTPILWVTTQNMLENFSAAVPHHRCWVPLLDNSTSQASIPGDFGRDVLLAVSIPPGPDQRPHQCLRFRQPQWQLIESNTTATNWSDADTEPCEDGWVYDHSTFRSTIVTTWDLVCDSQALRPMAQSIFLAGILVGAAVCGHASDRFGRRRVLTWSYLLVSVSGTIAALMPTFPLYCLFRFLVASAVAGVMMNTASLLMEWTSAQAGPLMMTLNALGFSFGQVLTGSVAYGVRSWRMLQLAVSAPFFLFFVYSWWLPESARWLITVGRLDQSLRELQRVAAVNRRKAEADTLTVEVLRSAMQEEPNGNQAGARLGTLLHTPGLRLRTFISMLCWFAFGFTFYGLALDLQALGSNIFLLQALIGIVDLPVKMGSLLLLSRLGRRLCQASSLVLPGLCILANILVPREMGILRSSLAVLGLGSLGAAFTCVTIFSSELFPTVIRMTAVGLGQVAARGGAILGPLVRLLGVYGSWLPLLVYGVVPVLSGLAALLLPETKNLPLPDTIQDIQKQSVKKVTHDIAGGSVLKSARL
The assay can be described thus: URAT1 activity assay, r-M481I. It is filed as cell-based.
Excerpt: as §3, §4, §5

In the next assay the target is T5, human URAT1 h-R477K (Homo sapiens, UniProt Q96S37, R477K).
T5 construct: expressed in transfected cells; host or cells: HEK-293T
T5 sequence (Q96S37 1-553 R477K): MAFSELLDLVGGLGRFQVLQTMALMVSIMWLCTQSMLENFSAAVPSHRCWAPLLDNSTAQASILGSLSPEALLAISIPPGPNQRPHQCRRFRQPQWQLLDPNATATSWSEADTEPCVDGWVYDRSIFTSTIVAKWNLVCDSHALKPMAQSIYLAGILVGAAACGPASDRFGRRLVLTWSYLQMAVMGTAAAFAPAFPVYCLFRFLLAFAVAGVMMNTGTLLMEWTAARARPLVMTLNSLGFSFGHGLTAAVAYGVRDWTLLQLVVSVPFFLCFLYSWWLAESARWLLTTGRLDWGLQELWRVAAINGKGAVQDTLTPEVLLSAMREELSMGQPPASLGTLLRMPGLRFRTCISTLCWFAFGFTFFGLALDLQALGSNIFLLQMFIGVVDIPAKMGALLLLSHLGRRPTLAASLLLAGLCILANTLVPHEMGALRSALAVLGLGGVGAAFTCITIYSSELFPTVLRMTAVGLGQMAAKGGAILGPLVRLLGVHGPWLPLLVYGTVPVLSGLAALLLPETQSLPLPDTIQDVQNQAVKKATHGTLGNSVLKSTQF
Nature of the assay: URAT1 activity assay, h-R477K. Type of assay: cell-based.
Excerpt: as §3, §1
URAT1 and OAT4 activity assays were performed in assay buffer consisting of 25 mM MES pH 5.5 (from a 1 M MES solution [Sigma] adjusted to pH 5.5 with sodium hydroxide), 125 mM sodium gluconate, 4.8 mM potassium gluconate, 1.2 mM monobasic potassium phosphate, 1.2 mM magnesium sulfate, 1.3 mM calcium gluconate and 5.6 mM glucose. URAT1 inhibitors were serially diluted into assay buffer and added to the cells for 5 minutes prior to addition of substrate. URAT1-expressing cells were incubated with 100 µM ^14C-uric acid for 10 minutes and OAT4-expressing cells were incubated with 20 µM carboxyfluorescein (Life Technologies, Inc.) for 5 minutes. Cells were then washed three times in 25 mM MES pH 5.5/125 mM sodium gluconate, and solubilized in Ultima Gold (Perkin Elmer) prior to liquid scintillation counting. Each treatment was measured in triplicate.

For the next assay, the target named is T6, human URAT1 h-M29L (Homo sapiens, UniProt Q96S37, M29L).
T6 construct: expressed in transfected cells; host or cells: HEK-293T
T6 sequence (Q96S37 whole entry M29L): as the sequence (Q96S37 whole entry T21A) above, with A21T, M29L counted along it
Nature of the assay: URAT1 activity assay, h-M29L. Type of assay: cell-based. The following applies: TM1 point mutant, read-out: Verinurad affinity (IC50).
Excerpt: as §3, §4, §5

The test system of the next assay is healthy human volunteers. The arrangement: method as in PMID 28744099. The following applies: humans; cited from earlier work.

Some results are limits rather than exact numbers.

For `CC(C)(Sc1ccncc1-c1ccc(C#N)c2ccccc12)C(=O)O` [Verinurad, 2-((3-(4-cyanonaphthalen-1-yl)pyrindin-4-yl)thio)-2-methylpropanoic acid], the IC50 on rat URAT1 stood at 41 ± 2.7 µM; on human URAT1 h-T21A, 26 ± 12 nM; at human OAT4 (human OAT4 in HEK-293T, 20 µM carboxyfluorescein, read-out: IC50, inhibition of transport activity), 5.9 ± 1.4 µM; on rat URAT1 r-M481I (TM11 point mutant, read-out: Verinurad affinity (IC50)), 11 ± 3.1 µM; on human URAT1 h-R477K (h-R477K binding site point mutant) it was 230 nM; on human URAT1 h-M29L it was 11 ± 2.9 nM. On human OAT4 (human OAT4 vs human URAT1), the “fold lower affinity compared to URAT1” value is “approximately 200 fold”. Moreover, the “fold increase in affinity compared to rat URAT1” value at rat URAT1 r-M481I was 4 fold. Further, on human URAT1 h-R477K (h-R477K), the “fold reduced affinity compared to human URAT1” value was 9 fold. Besides, in the assay with healthy human volunteers, the “dose that significantly lowers sUA levels” value is ≥ 5 mg.
